Experimental data as given in patent US20240181022A1, “AMURINS LYSINS, AND LYSIN-ANTIMICROBIAL PEPTIDE (AMP) CONSTRUCTS ACTIVE AGAINST GRAM-NEGATIVE BACTERIA” (priority 2021, published 2024).
Like-named read-outs stand apart in the source and are kept apart here. Where no end group is shown, it is not given here. [ ]: non-standard residue; d: D form.

Legend:
M. scrofulaceum = test: MIC against M. scrofulaceum; format: cell-based, Mycobacterium scrofulaceum; conditions: M. scrofulaceum (ATCC 19981); CAAT media
M. smegmatis = test: MIC against M. smegmatis; format: cell-based, Mycobacterium smegmatis; conditions: M. smegmatis (MC 155); CAAT media
Mycobacterium species = format: cell-based; conditions: 30 amurin peptides, seven species, CAAT media
M. tuberculosis = format: cell-based, Mycobacterium tuberculosis
M. kansasii = test: MIC against M. kansasii; format: cell-based, Mycobacterium kansasii; conditions: M. kansasi (ATCC 12478); CAAT media
M. avium = test: MIC against M. avium; format: cell-based, Mycobacterium avium; conditions: M. avium (ATCC 700898); CAAT media
M. intracellulare = test: MIC against M. intracellulare; format: cell-based, Mycobacterium intracellulare; conditions: M. intracellulare (ATCC 13950); CAAT media
M. abscessus = test: MIC against MDR M. abscessus isolates; format: cell-based, Mycobacterium abscessus; conditions: 7 days; for activity (MIC) against M. abscessus: 5 clinical MDR strains and 1 ATCC strain, CAAT; for MIC: AST media (CAAT)
M. fortuitum = test: MIC against M. fortuitum; format: cell-based, Mycobacterium fortuitum; conditions: M. fortuitum (ATCC 6841); CAAT media
E. cloacae = test: Checkerboard synergy assay (FICI) against E. cloacae; format: cell-based, Enterobacter cloacae; conditions: E. cloacae ATCC 13047
Description: (§1) Any known method to assess MIC may be used.
(§2) Checkerboards are constructed by first preparing columns of e.g., a 96-well polypropylene microtiter plate, wherein each well has the same amount of antibiotic diluted 2-fold along the horizontal axis. […] Bacteria are added to the drug combinations at concentrations of 1×10^5 […] in CAA, for example, with or without human serum or pulmonary surfactant. […] Summation fractional inhibitory concentrations (ΣFICs) are calculated for each drug and the minimum ΣFIC value (ΣFICmin) is used to determine the effect of the Chp peptide/antibiotic combination.
(§3) GN370 was further tested in combination with up to seven additional antibiotics (in addition to meropenem) against a variety of bacterial strains, including P. aeruginosa, A. baumannii, E. coli, E. cloacae, and K. pneumoniae. GN370 and the subject antibiotics were tested in a checkerboard assay format, and FICI values were determined, wherein ≤0.5 indicates synergy, >0.5-≤1 indicates additive; and >1 indicates indifferent.

A. baumannii = test: Checkerboard synergy assay (FICI) against A. baumannii; format: cell-based, Acinetobacter baumannii; conditions: A. baumannii ATCC BAA-747
Description: as §1, §2, §3

K. pneumoniae = test: Checkerboard synergy assay (FICI) against K. pneumoniae; format: cell-based, Klebsiella pneumoniae; conditions: K. pneumoniae HM-44
Description: as §1, §2, §3

P. aeruginosa = test: Checkerboard synergy assay (FICI) with antibiotics against P. aeruginosa; format: cell-based, Pseudomonas aeruginosa
Description: as §1, §2
The synergy of GN370 with meropenem was evaluated against 3 different strains of P. aeruginosa and three different strains of B. cenocepacia.
as §3

E. coli = test: Checkerboard synergy assay (FICI) against E. coli; format: cell-based, Escherichia coli; conditions: E. coli ATCC 25922
Description: In some embodiments, the Chp peptides disclosed herein or active fragments thereof reduce the minimum inhibitory concentration (MIC) of an antibiotic in the presence and/or absence of human serum, pulmonary surfactant, and/or sputum, including human sputum and human sputum from a cystic fibrosis patient. Any known method to assess MIC may be used. In some embodiments, a checkerboard assay is used to determine the effect of a Chp peptide or active fragment thereof on antibiotic concentration. The checkerboard assay is based on a modification of the CLSI method for MIC determination by broth microdilution (See Clinical and Laboratory Standards Institute (CLSI), CLSI. 2015. Methods for Dilution Antimicrobial Susceptibility Tests for Bacteria That Grow Aerobically; Approved Standard-10th Edition. Clinical and Laboratory Standards Institute, Wayne, PA, which is herein incorporated by reference in its entirety and Ceri et al. 1999. J. Clin. Microbiol. 37: 1771-1776, which is also herein incorporated by reference in its entirety).
Checkerboards are constructed by first preparing columns of e.g., a 96-well polypropylene microtiter plate, wherein each well has the same amount of antibiotic diluted 2-fold along the horizontal axis. […] The Chp peptide or active fragment thereof and antibiotic dilutions are then combined, so that each column has a constant amount of antibiotic and doubling dilutions of Chp peptide, while each row has a constant amount of Chp peptide and doubling dilutions of antibiotic. Each well thus has a unique combination of Chp peptide and antibiotic. Bacteria are added to the drug combinations at concentrations of 1×10^5 GFU/ml in CAA, for example, with or without human serum or pulmonary surfactant. […] Summation fractional inhibitory concentrations (ΣFICs) are calculated for each drug and the minimum ΣFIC value (ΣFICmin) is used to determine the effect of the Chp peptide/antibiotic combination.
as §3

[1] = M. tuberculosis (ATCC 35817), (ADC, T) media
[2] = M. tuberculosis strain TN8109_LB (MDR), 7H9 broth, 20 days
[3] = M. tuberculosis strain TN8562_M33 (susc), 7H9 broth, 20 days
[4] = M. tuberculosis strain TN10525_LL (MDR), 7H9 broth, 20 days
[5] = M. tuberculosis strain TN10571_KY (MDR), 7H9 broth, 20 days
[6] = M. tuberculosis strain TN12657_KQ15 (IS), 7H9 broth, 20 days
[7] = M. tuberculosis strain TN13923_HD17 (susc), 7H9 broth, 20 days
[8] = M. tuberculosis strain TN18349_W738 (susc), 7H9 broth, 20 days
[9] = M. tuberculosis strain TN34503_001 (susc), 7H9 broth, 20 days
[10] = M. abscessus strain BK51403 (ATCC 19977)

Substance	MIC (M. scrofulaceum) [µg/mL]	MIC (M. smegmatis) [µg/mL]	activity (MIC) against Mycobacterium species (Mycobacterium species)	MIC (M. tuberculosis; [1]) [µg/mL]	MIC (M. tuberculosis; [2]) [µg/mL]	MIC (M. tuberculosis; [3]) [µg/mL]	MIC (M. tuberculosis; [4]) [µg/mL]	MIC (M. tuberculosis; [5]) [µg/mL]	MIC (M. tuberculosis; [6]) [µg/mL]	MIC (M. tuberculosis; [7]) [µg/mL]	MIC (M. tuberculosis; [8]) [µg/mL]	MIC (M. tuberculosis; [9]) [µg/mL]	MIC (M. kansasii) [µg/mL]	MIC (M. avium) [Tg/mL]	MIC (M. intracellulare) [µg/mL]	activity (MIC) against M. abscessus (M. abscessus)	MIC (M. abscessus; M. abscessus strain BK51402) [µg/mL]	MIC (M. abscessus; [10]) [µg/mL]	MIC (M. abscessus; M. abscessus strain BK51408) [µg/mL]	MIC (M. abscessus; M. abscessus strain BK55096) [µg/mL]	also measured
AM9: Modified variant of Unp2, SEQ ID NO: 97 (M[dR][dR][dR][dR]LS[dR][dR]TS[dR][dR]FF[dR][dK]GL[dK]V[dR][dR][dR]NL[dR]A[dR]PM[dR]GGF[dR]I)	4	1	highest activity	4	16	16	64	8	16	16	8	16	2	1	2	good activity	1	4	4	2	MIC (M. abscessus; M. abscessus strain BK55691): 2 µg/mL; MIC (M. abscessus; M. abscessus strain BK58156): 2 µg/mL; MIC (M. fortuitum): 4 µg/mL
AM16: Modified variant of Chp4, SEQ ID NO: 91 (MA[dR][dR]Y[dR]LS[dR][dR][dR]S[dR][dR]LFS[dR]TAL[dR]MH[dR][dR]N[dR]L[dR][dR]IM[dR]GGI[dR]F)	1	0.25	highest activity	8	8	8	16	8	8	8	4	16	1	1	1	good activity	1	2	4	1	MIC (M. abscessus; M. abscessus strain BK55691): 1 µg/mL; MIC (M. abscessus; M. abscessus strain BK58156): 2 µg/mL; MIC (M. fortuitum): 2 µg/mL
Colistin																					FICI of the antibiotic with GN370 (E. cloacae): 0.25; FICI of the antibiotic with GN370 (A. baumannii): 0.375; FICI of the antibiotic with GN370 (K. pneumoniae): 0.187; FICI of the antibiotic with GN370 (P. aeruginosa; P. aeruginosa ATCC 27853, checkerboard): 0.499; Antibiotic MIC (single agent) (P. aeruginosa; P. aeruginosa strain AR-769): 0.063 µg/mL; Antibiotic FIC (P. aeruginosa; P. aeruginosa strain AR-769, in combination with GN370): 0.125; Antibiotic MIC (combo) (P. aeruginosa; P. aeruginosa strain AR-769, in combination with GN370, in µg/mL): 0.008; FICI of the antibiotic with GN370 (E. coli): 0.375
Gentamicin																					FICI of the antibiotic with GN370 (E. cloacae): 0.25; FICI of the antibiotic with GN370 (A. baumannii): 0.563; FICI of the antibiotic with GN370 (K. pneumoniae): 0.375; FICI of the antibiotic with GN370 (E. coli): 0.312
